From patent US7807201B2, “Antifungal agent comprising natural plant extracts” (Binex Co., Ltd., priority 2007, dated 2010) come the findings set out here.

SMILES strings stand for the structures.

In this assay the test system is Saprolegnia parasitica. Nature of the assay: Antifungal effect at different concentrations by 24-well plate method (MIC). Type of assay: cell-based. To be noted: for Antifungal effect: water mould Saprolegnia parasitica on GY agar. From the text:
Water moulds were taken from the body surface of rainbow trout. The water moulds were isolated and subcultured using GY medium (broth) containing 10 g/L of glucose and 2.5 g/L of yeast extract and GY medium (agar) containing 10 g/L of glucose, 2.5 g/L of yeast extract and 7.5 g/L of agar. The pathogenic water moulds were isolated and identified as Saprolegnia parasitica (Gene Bank Data homology search result: 99%) through ITS-5.8S rDNA sequencing at the Korean Culture Center of Microorganisms (KCCM) of the Korean Federation of Culture Collections (KFCC). The natural product sweet flag extract was compared with malachite green. Antifungal effect and minimal inhibitory concentration (MIC) were tested by the 24-well plate method and the diffusion method.
GY agar was placed on a sterilized 24-well plate. […] Hyphae of Saprolegnia parasitica, which had been cultured in GY agar plate, taken with a 50 mL syringe were added to each plate and antifungal activity test was carried out for 72 hours. Photographs were taken every 24 hours.
GY agar was placed on a sterilized 24-well plate. After waiting until the medium was dry, each 100 μL of 20 ppm, 2 ppm and 0.2 ppm malachite green (MG) was added to the GY medium (control), in the same manner as in FIG. 1. Hyphae of Saprolegnia parasitica, which had been cultured in GY agar plate, taken with a 50 mL syringe were added to each plate and antifungal activity test was carried out for 72 hours. Photographs were taken every 24 hours.

For the compound `CN(C)c1ccc(C(=C2C=CC(=[N+](C)C)C=C2)c2ccccc2)cc1` [MG, malachite green], the Antifungal effect entry (0.2 ppm) is “+”, the Antifungal effect result (2 ppm) was “++” and the Antifungal effect result (20 ppm) is “+++”. The MIC (Saprolegnia parasitica, read-out: MIC (minimal inhibitory concentration)) came out at 2 µg/mL.
